The text below walks through data of patent US20260199485A1, “RNA DEGRADERS AND USES THEREOF” (Arrakis Therapeutics, Inc., priority 2022, published 2026).

The target of test [1] is T1, CNOT7-FKBP12(F36V) fusion protein (Homo sapiens, UniProt Q9UIV1).
T1 construct: expressed in transfected cells; host or cells: H1299 cells; anti-HA immunoprecipitation, HA-peptide elution
Nature of the test: Biochemical gel assay: degradation/deadenylation of RNA substrate with immunoprecipitated CNOT7-FKBP12(F36V). Further details: key to Activity by gel: +: an activity observed as compared to DMSO control; −: no activity observed as compared to DMSO control. The note with it: for Activity by gel: Table 8, degradation of RNA, compared to DMSO control. From the text: Biochemical reporter systems were generated to evaluate the ability of CNOT7 binding compounds to accelerate the degradation of RNA by CNOT7. […] Generation of the target RNA was described in the previous experiment. […] The bifunctional molecules consist of Compound 1-4 and the following rSM:
which binds to the RNA sequence of AST-X, or the rSM linked to a tag that binds CNOT7-FKBPV. Specifically, the tag is compound AP1867 (CAS NO.: 195514-23-9), a known binder of FKBPV, resulting in the rSM-AP1867tag. The CNOT7-FKBPV is obtained by immunoprecipitation of cell engineered to express CNOT-FKBPV. Specifically, H1299 cells were transfected with plasmid expressing HA-tagged CNOT7-FKBP12(F36V) fusion protein. After 24 hours, cells were pelleted and lysed in the following lysis buffer: 20 mM HEPES pH 7.3, 0.2 mM EGTA, 10% glycerol, 0.1 mM DTT with cOmplete EDTA-free protease inhibitors (Millipore). After freeze-thawing, NaCl was added to a concentration of 400 mM and lysates were pelleted to clear cellular debris. Cleared lysate was adjusted to buffer conditions containing 0.1% NP-40 and 150 mM NaCl before being applied to Pierce Anti-HA magnetic beads (ThermoFisher) at 4° C. for 2-20 hours with end-over-end rotation. After washing, bound protein was competitively eluted with 2 mg/mL HA peptide (ThermoFisher) in activity assay buffer at 4° C. for 2-20 hours. It should be appreciated that this immunoprecipitation protocol will result in tagged CNOT7 that will likely have other components of the CCR4-NOT complex bound as well.
The reactions were incubated at 37° C., with specified timepoints removed from the reaction and combined with 2× formamide RNA loading buffer with 10 mM EDTA before boiling for 3 minutes to quench the reaction. Samples were run on a pre-warmed 15% TBE-Urea polyacrylamide gel at 180V for 90 minutes and then imaged using Cy2 settings on the Azure Biosystems 600 Imaging System. […] It should be noted that the CCR4-NOT complex includes proteins other than CNOT7, for instance CNOT6, that have deadenylation and/or exonuclease activity.
These findings were confirmed in the biochemical assay described above. […] In contrast, literature compounds that are active site binders, compounds A, B and C, structure depicted on the right-hand side, do interfere with the ability of CNOT7 to degrade RNA (See center panel of gel).
Heterobifunctional molecules were generated by conjugating the rSM depicted above, which binds RNA with an AST-X sequence, to AP1867 (a small molecule binder of FKBP12(F36V)), resulting in rSM-AP1867tag. In addition, I-243 was conjugated to the rSM resulting in compounds 1-329 and I-371, depicted in FIG. 17. Fluorescently labeled RNA substrates were refolded in the presence of Mg^2+ and incubated 10, 25, or 50 μM doses of heterobifunctional molecules for 30 minutes at room temperature before the enzymatic reaction was initiated with the elution fraction (containing CNOT7-FKBP12(F36V) fusion protein) from the immunoprecipitation protocol above. The reactions were incubated at 37° C., with specified timepoints removed from the reaction and combined with 2× formamide RNA loading buffer with 10 mM EDTA before boiling for 3 minutes to quench the reaction. Samples were run on a pre-warmed 15% TBE-Urea polyacrylamide gel at 180V for 120 minutes and then imaged using Cy2 settings on the Azure Biosystems 600 Imaging System (See FIGS. 18, 19A and 19B). In addition, for 1-371 and the control rSM-AP1867tag, the disappearance of the full-length substrate band was quantified using ImageJ and plotted over time (FIG. 19B).

The target of test [2] is T2, CNOT7 (Homo sapiens, UniProt Q9UIV1).
T2 construct: biotin (biotinylated); purchased Ichor Life Sciences
Briefly: Binding of compounds to CNOT7 by surface plasmon resonance (SPR). A digest of the protocol:
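Biotinylated CNOT7 captured on a streptavidin chip (~7,500 RU); compounds injected at several concentrations (120 s association, 120 s dissociation, 30 ul/min) in 20 mM HEPES pH7.5, 100 mM KCl, 3 mM MgCl2, 1 mM TCEP, 0.05% tween-20, 2% DMSO. Reference- and solvent-corrected sensograms fit to a 1:1 steady-state affinity model.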
(In general: In SPR one partner is held on a chip, and binding of the other changes the refractive index at the surface.)

Test [3] addresses T2, CNOT7. Briefly: AMP competition assay by SPR (active site vs other site of CNOT7). It is filed as binding. The note with it: combination with AMP, increasing concentrations. As to the method:
In order to evaluate if the compounds bound to the active site of CNOT7, an AMP competition experiment was performed. FIG. 5 provides a schematic of a surface plasmon resonance (SPR) experiment to interrogate if a CNOT7 binding compound binds in the active site of CNOT7. Briefly, AMP, which is a known binder to the active site, was interrogated at increasing concentrations for binding to CNOT7. As a next step, a CNOT7 binding compound was interrogated at increasing concentrations for binding to CNOT7. As a final step a combination of AMP and CNOT7 binding compound was interrogated by SPR at increasing concentrations for binding to CNOT7. If the signals were additive, AMP and the CNOT7 compounds bind to independent sites on CNOT7. […] In contrast, if the signals are not additive, this would indicate that AMP and CNOT7 […] for the same site. […] As a control, literature compounds that are active site binders, compounds A, B and C, are not additive when combined with AMP.

Test [4] addresses T2, CNOT7. Nature of the test: CNOT7 inhibition assay (recombinant Avi-tagged CNOT7, deadenylation gel). It is filed as biochemical. The note with it: 50 μM compound, 100 nM recombinant Avi-tagged CNOT7, 200 nM RNA. As for the experimental part:
Recombinant CNOT7 (with a C-terminal Avi tag) was produced in E. coli and purified to high purity. For this biochemical assay, deadenylation reactions are carried out by refolding 2 microM fluorescently labeled RNA substrate (5′ 6-FAM-[…] AAAAAA (SEQ ID NO:1) in the presence of 100 mM KCl and 3 mM MgCl2 at 37 C for 30 minutes and then pre-incubating the RNA with 500 microM compound (inhibitor, heterobifunctional, or the CNOT7 binding moiety of the heterobifunctional) at room temperature for 30 minutes (in the presence of 0.05% Tween-20) before initiating the deadenylation reaction with the addition of the recombinant CNOT7 (with Avi-tag). In the reactions, the final concentration of RNA was 200 nM, the final concentration of the compounds was 50 μM, and the final concentration of CNOT7 was 100 nM. Glycerol and BSA were included in the reactions to aid in protein stability and activity (final concentrations of 5% and 0.15 mg/mL, respectively). Timepoints were removed from the reaction and quenched by adding formamide loading dye including 10 mM EDTA. Samples were run on 15% TBE-Urea gels at 180V for 2-2.5 hours and imaged using an Azure imager with FAM detection settings. Bands were quantified using ImageJ and % full length substrate over time was normalized to band intensity at time zero.
This was to be expected as the CNOT7 binding moieties are not expected to bind in the active site or interfere with the ability of CNOT7 to deadenylate RNA. […] We speculate that the inhibition is caused by specific interaction of the heterobifunctional compounds with the recombinant Avi-tagged CNOT7.

For test [5], the target named is T3, CNOT7:CNOT1 complex (Homo sapiens, UniProt Q9UIV1).
T3 construct: purchased Helix Biosciences; host or cells: E. coli
Nature of the test: CNOT7:CNOT1 recombinant assay (deadenylation gel). It is filed as biochemical. As to conditions: 50 microM compound, 50 nM CNOT7:CNOT1. As to the method:
Recombinant CNOT7:CNOT1 (MIF4G domain: aa 1093-1317) complex was produced in E. coli including an 8×His affinity tag, which was cleaved prior to use. The resulting untagged complex was purified to high purity (Helix Biosciences). For this biochemical assay, deadenylation reactions are carried out by refolding 2 microM fluorescently labeled RNA substrate (5′ 6-FAM-[…] AAAAAA (SEQ ID NO:1)) in the presence of 100 mM KCl and 3 mM MgCl2 at 37 C for 30 minutes and then pre-incubating the RNA with 500 microM compound (inhibitor, heterobifunctional, or the CNOT7 binding moiety of the heterobifunctional) at room temperature for 30 minutes (in the presence of 0.05% Tween-20) before initiating the deadenylation reaction with the addition of recombinant CNOT7:CNOT1 complex. In the reactions, the final concentration of RNA was […], the final concentration of the compounds was 50 microM, and the final concentration of CNOT7:CNOT1 was 50 nM. Glycerol and BSA were included in the reactions to aid in protein stability and activity (final concentrations of 5% and 0.15 mg/mL, respectively). Timepoints were removed from the reaction and quenched by adding formamide loading dye including 10 mM EDTA. Samples were run on 15% TBE-Urea gels at 180V for 2-2.5 hours to resolve substrate and product bands and imaged using an Azure imager with FAM detection settings. Bands were quantified using ImageJ and % full length substrate over time was calculated by [Intensity of substrate band]/[Total intensity of full lane of gel].

[6] abbreviates: Table 5, dissociation constant for CNOT7 by SPR.
Where [7] appears, read: dissociation constant by SPR, Table 7.

T1 sequence (Q9UIV1 with tags, fused parts or gaps): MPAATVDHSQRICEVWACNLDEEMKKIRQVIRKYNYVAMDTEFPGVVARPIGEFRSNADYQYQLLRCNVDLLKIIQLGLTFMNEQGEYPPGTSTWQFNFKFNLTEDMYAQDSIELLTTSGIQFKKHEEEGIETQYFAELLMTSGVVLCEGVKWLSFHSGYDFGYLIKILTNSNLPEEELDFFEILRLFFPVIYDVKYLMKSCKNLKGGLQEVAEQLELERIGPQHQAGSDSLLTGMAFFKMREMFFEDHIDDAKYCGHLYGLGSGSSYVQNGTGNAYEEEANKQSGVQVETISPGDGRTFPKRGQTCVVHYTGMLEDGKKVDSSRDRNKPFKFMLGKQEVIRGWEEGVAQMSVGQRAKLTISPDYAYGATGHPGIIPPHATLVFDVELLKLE
T2 sequence (Q9UIV1 whole entry): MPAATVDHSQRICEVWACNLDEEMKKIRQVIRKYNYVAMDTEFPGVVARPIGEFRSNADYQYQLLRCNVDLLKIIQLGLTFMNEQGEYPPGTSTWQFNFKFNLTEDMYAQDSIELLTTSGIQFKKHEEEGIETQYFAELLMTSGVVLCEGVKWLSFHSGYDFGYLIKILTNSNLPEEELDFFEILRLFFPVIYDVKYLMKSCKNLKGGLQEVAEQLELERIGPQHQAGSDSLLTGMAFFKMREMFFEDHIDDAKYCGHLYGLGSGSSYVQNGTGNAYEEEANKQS
T3 sequence (Q9UIV1 whole entry): as above
T3 sequence (A5YKK6 1093-1317 partner limits assumed): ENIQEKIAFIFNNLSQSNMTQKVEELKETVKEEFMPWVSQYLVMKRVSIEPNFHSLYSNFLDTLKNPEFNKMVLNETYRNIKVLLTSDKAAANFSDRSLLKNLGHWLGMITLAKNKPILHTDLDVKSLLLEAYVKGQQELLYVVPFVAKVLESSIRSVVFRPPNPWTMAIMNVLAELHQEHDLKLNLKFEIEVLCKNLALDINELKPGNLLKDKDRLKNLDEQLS

For the molecule `Cc1c[nH]c(=O)nc1SCC(=O)NCc1ccc2c(c1)OCO2` [Compound I-1], the “interference with the ability of CNOT7 to degrade RNA” value in test [1] (compound added to the CNOT7 and RNA mixture (FIG. 11)) was “did not interfere”. In addition, the Kd (as a rule, the equilibrium constant for the complex coming apart) in test [2] (Table 4, dissociation constant for CNOT7) fell in the range of 1000 to 25000 nM. For the same molecule, in test [3], the “SPR signal additive to AMP (additive = binds CNOT7 at a location other than the active site)” value is “additive to AMP”.
On to `COc1ccc2c(c1)CCN(C(=O)CSc1nc(=O)[nH]cc1C)C2` [Compound I-198], for which the “inhibition of CNOT7 activity (rate of deadenylation vs DMSO control)” value in test [4] was “did not inhibit CNOT7 activity”. In test [2] (setting [6]), the equilibrium dissociation constant (Kd) fell in the range of 1000 to 25000 nM. Also, in test [5], the “inhibited or accelerated the deadenylation activity of the CNOT7:CNOT1 complex” value is reported as “neither”.
Taken in the same sequence, the figures for `COc1ccc(C(C)NC(=O)CSc2nc(=O)[nH]cc2C)c(F)c1` (centres unmarked) [Compound I-243] were “slightly inhibited CNOT7 activity”, 100 to 1000 nM and “neither”.
With `COc1ccc([C@@H](C)NC(=O)CSc2nc(=O)[nH]cc2Cl)c(F)c1` [Compound I-330], the “inhibition of CNOT7 activity (rate of deadenylation vs DMSO control)” value in test [4] is “slightly inhibited CNOT7 activity”. For the same molecule, the Kd fell in the range of 100 to 1000 nM in test [2] (Table 6, dissociation constant for CNOT7 by SPR) and 1000 to 25000 nM in test [2] (setting [7]). Besides, the “inhibited or accelerated the deadenylation activity of the CNOT7:CNOT1 complex” value in test [5] is given as “neither”.
Take `COc1ccc([C@@H](C)NC(=O)[C@@H](CCOCCOCCOCCn2cc(COCCOCCOCCOCCOc3ccc(NC(=O)Nc4nc(CC(=O)N5CCN(C)CC5)cs4)cc3)nn2)Sc2nc(=O)[nH]cc2Cl)c(F)c1` [Compound I-397]: in test [4], the “inhibition of CNOT7 activity (rate of deadenylation vs DMSO control)” value is “inhibit some of the CNOT7 activity”. Moreover, the Activity by gel entry in test [1] is listed as “+”. Moreover, the Kd in test [2] (setting [7]) lay within 1000 to 25000 nM.
Take `COc1ccc(CNC(=O)[C@H](COCCOCCOCCn2cc(COCCOCCOc3ccc(NC(=O)Nc4nc(CC(=O)N5CCN(C)CC5)cs4)cc3)nn2)Sc2nc(=O)[nH]cc2C)c(F)c1` [Compound I-474]: the Activity by gel result in test [1] is recorded as “−”. In addition, the Kd in test [2] (setting [7]) lay within 1000 to 25000 nM.
`COc1ccc(CNC(=O)[C@@H](COCCOCCOCCn2cc(COCCOCCOCCOCCOc3ccc(NC(=O)Nc4nc(CC(=O)N5CCN(C)CC5)cs4)cc3)nn2)Sc2nc(=O)[nH]cc2C)cc1` [Compound I-475]: the Activity by gel entry in test [1] was “−”. For the same molecule, the Kd in test [2] (setting [7]) was 1000 to 25000 nM.
In the case of `COc1ccc(CNC(=O)[C@H](COCCOCCOCCn2cc(COCCOCCOCCOCCOc3ccc(NC(=O)Nc4nc(CC(=O)N5CCN(C)CC5)cs4)cc3)nn2)Sc2nc(=O)[nH]cc2C)cc1` [Compound I-476], the Activity by gel entry in test [1] is reported as “−”. For the same molecule, in test [2] (setting [7]), the Kd lay within 1000 to 25000 nM.
For `COc1ccc(CNC(=O)[C@H](COCCOCCOCCn2cc(COCCOCCOCCOCCOc3ccc(NC(=O)Nc4nc(CC(=O)N5CCN(C)CC5)cs4)cc3)nn2)Sc2nc(=O)[nH]cc2C)c(F)c1` [Compound I-478] the same measures were “+” and 1000 to 25000 nM.
For `COc1ccc2c(c1)C[C@@H](COCCOCCOCCOCCn1cc(COCCOCCOc3ccc(NC(=O)Nc4nc(CC(=O)N5CCN(C)CC5)cs4)cc3)nn1)C(C(=O)CSc1nc(=O)[nH]cc1C)C2` (some centres unmarked) [Compound I-495] the same measures were “−” and > 25000 nM.
Consider `COc1ccc2c(c1)C[C@H](COCCOCCOCCOCCn1cc(COCCOCCOc3ccc(NC(=O)Nc4nc(CC(=O)N5CCN(C)CC5)cs4)cc3)nn1)C(C(=O)CSc1nc(=O)[nH]cc1C)C2` (some centres unmarked) [Compound I-496], for which, in test [4], the “inhibition of CNOT7 activity (rate of deadenylation vs DMSO control)” value is reported as “inhibit some of the CNOT7 activity”. Moreover, in test [1], the Activity by gel result is “+”. In addition, the dissociation constant (Kd) in test [2] (setting [7]) was > 25000 nM. In addition, the “inhibited or accelerated the deadenylation activity of the CNOT7:CNOT1 complex” value in test [5] is listed as “neither”.
In the case of `COc1ccc2c(c1)C[C@@H](COCCOCCOCCOCCn1cc(COCCOCCOCCOCCOc3ccc(NC(=O)Nc4nc(CC(=O)N5CCN(C)CC5)cs4)cc3)nn1)N(C(=O)CSc1nc(=O)[nH]cc1C)C2` [Compound I-497], the Activity by gel entry in test [1] is recorded as “+ (weak)”. Further, the Kd in test [2] (setting [7]) is > 25000 nM.
